Assay results from patent US10568854B2, “Compositions and methods for treating kabuki syndrome and related disorders” (THE JOHNS HOPKINS UNIVERSITY, priority 2014, dated 2020).
Entries after “also recorded” stand apart in the source; their conditions may differ. One block for each compound: values may come before it.

Columns and labels:
[1] = system: DCX positive cells in the GCL; test: Doublecortin positive fraction of the GCL (Example 2); type: in vivo, mouse; details: 10 mM/kg/day IP, two weeks, sodium salt
Description: Perfusion, sectioning and, staining: For perfusion, cryosectioning and immunofluorescence staining, see Bjornsson et al. (2014). EdU (Life Sciences) in PBS/6% DMSO (10 mg/ml) injections (50 μg/g/day) were performed either with seven consecutive days followed by immediate perfusion or seven consecutive days of injection and then perfusion on the 30th day after the first injection. […] EdU was imaged with Click-iT EdU Alexa Flour 488 Imaging Kit (Invitrogen) as well as DAPI mounting with Vectamount (Vector Laboratories, Burlingame, Calif.). EdU quantification was done blinded to genotype. Labeled cells were counted in every sixth slice in the granule cell layer of the dentate gyrus and average number per slice was calculated for each brain. For immunofluorescence, primary antibodies included Doublecortin (Santa Cruz Biotechnology, 1:200 goat), trimethylated H3K4 (Cell Signaling, Danvers, Mass.; 1:500 rabbit), and Acetylated H3K9 and […] (Cell Signaling, 1:5000). Primary antibodies were incubated overnight at 4° C. in blocking buffer. Doublecortin area measurement: The DCX positive fraction of the GCL was measured by taking 4× pictures and using the Bezier tool on NS elements 2.0 software (Nikon) to measure the area of cells that expressed DCX as well as the entire granule cell layer.

[2] = system: H4ac indicator in HEK 293 cells; test: H4ac indicator experiment with BHB, FACS; type: cell-based; details: 24 hours before FACS; sodium salt
Description: (§1) Indicator experiments: HEK 293 cells were transfected with lipofectamine LTX (Invitrogen, Carlsbad, Calif.) with either the H3K4me3 indicator or the H4ac indicator, synthesized by OriGene Technologies (Rockville, Md.). Stable transfections were maintained through positive selection with blastacidin […] (Life Technologies, Grand Island, N.Y.). For BHB treatment, (R)-(−)-3-Hydroxybutyric acid sodium salt (Santa Cruz Biotechnology) was added to the medium 24 hours before FACS analysis (FACSVerse, BD Biosciences, Franklin Lakes, N.J.). Data was analyzed using FlowJo (Tree Star Inc., Ashland, Oreg.).

[3] = system: H3K4me3 indicator in HEK 293 cells; test: H3K4me3 indicator experiment with BHB, FACS; type: cell-based; details: 24 hours before FACS; sodium salt
Description: as §1

[4] = BHB in urine, colorimetric assay; type: in vivo, mouse
Description: (§2) BHB injection and BHB assay: For injections into mice, (R)-(−)-3-hydroxybutyric acid sodium salt (Santa Cruz Biotechnology, Dallas, Tex.) was used at an experimental dose of (10 mM/kg). To detect BHB in the urine (from either injections or ketogenic diet), the β-Hydroxybutyrate (Ketone Body) Colorimetric Assay Kit (Cayman Chemical Company, Ann Arbor, Mich.) was used. Urine from injections was drawn approximately 2 hours after injection and urine from mice on the ketogenic diet was taken in the early afternoon (unless otherwise stated in the text).

[5] = system: EdU+ cells in the GCL; test: EdU incorporation in the GCL (proliferation / survival); type: in vivo, mouse; details: 10 mM/kg/day IP, two weeks, sodium salt
Excerpt: Animals and treatment: The mouse model, Kmt2d^+/βGeo, also known as (Mll2Gt^(RRt024)Byg), was generated by BayGenomics (University of California, CA) through insertion of a gene trapped vector, and was used on a fully backcrossed C57BL/6J background. The original unbalanced (6:1 fat to protein ration) diet was purchased from Bio-Sery (Ketogenic Diet AIN-76A-Modified High Fat Paste F3666; Flemington, N.J.), while the balanced diet (4:1 ratio) was also from Bio-Serv (F6689 Rodent Diet, Ketogenic, Fat: Paste). Mice were treated for two weeks on the diet, with the paste replaced several times a week. During MWM testing, given the length of testing (week), the mice were treated for three weeks.
as §2, with “Urine from injections was drawn approximately 2 hours after injection and urine from mice on the ketogenic diet was taken in the early afternoon (unless otherwise stated in the text).” left out
Perfusion, sectioning and, staining: For perfusion, cryosectioning and immunofluorescence staining, see Bjornsson et al. (2014). […] EdU quantification was done blinded to genotype. Labeled cells were counted in every sixth slice in the granule cell layer of the dentate gyrus and average number per slice was calculated for each brain. […]

[6] = system: H3K4 trimethylation and histone acetylation; details: Huang et al. (2011); cited from earlier work
[7] = system: H3K4 trimethylation activity in Kmt2d^+/βGeo and Kmt2d^+/+ MEFs; test: H3K4me3 indicator in murine embryonic fibroblasts (MEFs); type: cell-based, mouse; details: Kmt2d^+/βGeo cells treated with HDAC inhibitor
Excerpt: An H3K4 trimethylation reporter was also created. This reporter is based on the H3 tail on one end and the TBP associated factor III (TAFIII) homeodomain on the other end; the TAFIII homeodomain only identifies and binds to trimethylated K4 on H3. When the H3K4 site gets trimethylated, the TAFIII homeodomain can bind to the modified H3 tail and bring the two parts of the separated GFP in close proximity. The activity of the epigenetic modification system can be quantified through fluorescence.
(§3) Epigenetic reporter alleles: Epigenetic reporter alleles were synthesized (OriGene, Rockville, Md.) using published sequences for component elements (Baird et al. (1999) Proc. Nail. Acad. Sci. 96:11241-6; Souslova et al. (2007) BMC Biotechnol. 7:37). Single nucleotide mutations were created using the QuickChange Lightening kit (Agilent Technologies Inc, Santa Clara, Calif.). For H4ac indicator, K5R, K8R, K12R, K16R and K20R (MUT indicator) were introduced. For H3K4me3 indicator, K4Q and D890A/W891A and M882A (three separate constructs) were introduced. For transient transfections, mouse embryonic fibroblasts (see below) were transfected with Fugene HD (Promega, Madison, Wis.), 48 hours prior to FACS. […] For drug stimulation, drug was added to the media 24 hours prior to FACS. For stable transfections in T293 (American Type Culture Collection) cells, 10 μg/ml of Blastocidin (Life Technologies, Carlsbad, Calif.) was added to the media for several weeks. For stable transfection in MEFs, the reporter was transferred to a ViraPower Lentiviral Expression System (Life Technologies, Carlsbad, Calif.). After selection with Blastocidin, the drug of interest was added 24 hours prior to FACS. SAHA, AR-42 and MS275 were purchased from Selleck (Selleck Chemicals, Houston, Tex.). […] FACS data were analyzed using FlowJo (Tree Star Inc, Ashland, Oreg.). A plasmid expressing HDAC3 was acquired from Addgene (Cambridge, Mass., plasmid 13819) and transfected into a stable cell line carrying the H4 acetyl reporter allele.

[8] = system: H4ac indicator (H4 acetylation machinery activity) in HEK293 cells; test: H4ac (acetylation) indicator reporter assay, FACS; type: cell-based
Excerpt: Design of the indicator constructs. A genetically encoded histone reporter allele system has been developed which can be used to monitor activity of any histone maintenance machinery component in live cells. Previously, FRET based epigenetic activity systems have been created (Lin and Ting (2004) Angew Chem Int Ed Engl. 24;43 (22):2940-3; Lin et al. (2004) J. Am. Chem. Soc. 19;126(19):5982-3; U.S. Pat. No. 7,056,683). However, FRET-based assays need a complex technological setup which is not widely available and FRET-based assays have been much more difficult to introduce into transgenic mouse models. […] The particular construct design is based on a circularly permutated green fluorescent protein (GFP) that lacks fluorescence unless the two parts of GFP are brought into close proximity by external forces (Baird et al. (1999) Proc. Natl. Acad. Sci. U.S.A. 28;96(20):11241-6). The constructs are targeted to the nucleus through a nuclear localization signal (NLS). Mutants were also created that knocked out the activity of the indicator allele.
The acetyl reporter protein quantifies the activity of the acetylation machinery (acetylation of H4 specifically at the 5th, 8th, 12th and 16th Lysine's) and comprises an H4 tail on one end (the target for acetylation) and a TBP associated factor II (TAFII) bromodomain on the other end of the reporter protein. The TAFII bromodomain only recognizes and binds to the acetylated H4 tail, resulting in reconstitution of GFP structure and function (i.e. fluorescence). Therefore, the reporter protein has no fluorescence unless it is acetylated by the acetylation system of the nucleus of the cell.
as §3

time of maximal drug activity ([4]; after injection): 1.5 h
Structure (SMILES): C[C@@H](O)CC(=O)[O-].[Na+] [BHB, (R)-(−)-3-hydroxybutyric acid sodium salt]
DCX positive cells, treated Kmt2d^+/βGeo versus treated Kmt2d^+/+ [1]: not to Kmt2d^+/+ BHB treated levels; also recorded: did not lead to a full recovery
DCX positive cells, treated versus vehicle ([1]; Kmt2d^+/βGeo): increase in DCX expression; also recorded: significant increase in DCX positive cells
H4Ac indicator response to increased amounts in culture media [2]: dose-dependent increased activity; also recorded: dose-dependent response
H3K4me3 indicator response to increased amounts in culture media [3]: dose-dependent increased activity; also recorded: dose-dependent response
BHB level in the urine over a 12 hour day after one injection ([4]; 10 mM/kg at 9 AM): decreased to vehicle injected levels over a matter of hours
BHB level in the urine after injection ([4]; 10 mM/kg, urine after 1.5 hours): most similar to treatment with a ketogenic diet
EdU positive cells, treated Kmt2d^+/βGeo versus Kmt2d^+/+ [5]: did not recover back; also recorded: did not lead to a full recovery
EdU positive cells (proliferation), treated versus vehicle ([5]; Kmt2d^+/βGeo): significant increase in EdU expression; also recorded: significant increase in EdU positive cells

Structure (SMILES): Nc1ccccc1NC(=O)c1ccc(CNC(=O)OCc2cccnc2)cc1 [MS275, Pyridin-3-ylmethyl N-[[4-[(2-aminophenyl)carbamoyl]phenyl]methyl]carbamate]
effect on H3K4 trimethylation and histone acetylation [6]: increase H3K4 trimethylation and histone acetylation
H3K4 trimethylation activity [7]: enhanced; also recorded: improved

Structure (SMILES): O=C(CCCCCCC(=O)Nc1ccccc1)NO [SAHA, N′-hydroxy-N-phenyl-octanediamide]
cells easily discriminated from auto fluorescence (H4ac indicator) ([8]; 1 μM of SAHA): 5%
cells easily discriminated from auto fluorescence (H4ac indicator) ([8]; 2.5 μM of SAHA): 20%
cells easily discriminated from auto fluorescence (H4ac indicator) ([8]; 7.5 μM of SAHA): 40%
cells easily discriminated from auto fluorescence (H4ac indicator) ([8]; 10 μM of SAHA): 45%
fluorescence response of acetylation indicator to increasing amounts of drug ([8]; FACS, culture systems): linear fluorescence response; also recorded: increasing fluorescence
acetylation of the indicator ([8]; FIG. 18A): increases acetylation of the indicator
H4ac indicator signal upon stimulation ([8]; HEK293 cells stably expressing the H4ac indicator): increased signal
